For one data set, the system named is corneal kindled seizures. The data set can be described thus: Mouse corneal kindling model. Type of data set: in vivo, mice. As to conditions: for Mean Seizure Score: Racine 0 to 5. How it is done: After the mice reached a stable kindled state, the test compound or vehicle was administered and, at the previously determined TPE, each animal was given the electrical stimulus indicated above. […] One dose of LEV and two doses of Co.

Data set [1] can be described thus: Plasma and brain levels (pK/pD analysis). The note with it: for concentration at 0.5 h / concentration at 0.25 h / concentration at 1 h / concentration at 2 h / concentration at 4 h: mouse. Format: in vivo, mice. How it is done: In various tests, animals were sacrificed following testing, and trunk blood and/or brain tissue (whole brains) was collected for quantification of drug levels. Immediately after testing, animals were decapitated and trunk blood was collected into a BD Vacutainer® tube containing K2EDTA and chilled on ice until centrifugation. Following centrifugation (13000-18000 rpm, 5-7 min), the plasma was removed and transferred to a labeled microcentrifuge tube and stored at −80° C. For brain tissue collection, brains were removed immediately following decapitation and flash frozen. The frozen sample was placed in a labeled centrifuge tube and stored at −80° C.
In addition to recording the efficacy and toxicity data for these compounds alone or in combination, both plasma and brain samples were collected from each of the groups for pharmacokinetic/pharmacokinetic analysis.

Another data set addresses T1, human mGlu2 receptor (Homo sapiens, UniProt Q14416).
T1 construct: expressed in transfected cells; host or cells: CHO cells
In words: [35S]GTPγS binding assay, mGluR2 PAM. Format: biochemical. The note with it: for Emax: maximal % effect relative to control glutamate response, EC20 glutamate, read-out: GTPγS-hmGluR2 PAM Emax. (In general: Binding of GTPγS marks nucleotide exchange on a G protein.)

The next data set has as its system MES seizures. The note with it: in vivo; cited from earlier work.
The subject of data set [2] is pentylenetetrazol seizures. As to conditions: in vivo; cited from earlier work.
Where [3] appears, read: plasma, subcutaneous, 10 mg/kg, 10 mg/kg s.c., 32 mA group, read-out: Co. No. 25-a mean plasma levels.
Setting [4] is: plasma, subcutaneous, 20 mg/kg, 20 mg/kg s.c., 32 mA group, read-out: Co. No. 25-a mean plasma levels.
Setting [5] is: LEV 10 mg/kg combined with Co. No. 2 3 mg/kg, 6 Hz 44 mA.

SMILES strings stand for the structures. Several values for one entry are separate records, joined by “and”; a condition that tells them apart may be missing. Equal entries are not always repeated. Where two headings read alike, the source gives them in different places.

T1 sequence (Q14416 19-872): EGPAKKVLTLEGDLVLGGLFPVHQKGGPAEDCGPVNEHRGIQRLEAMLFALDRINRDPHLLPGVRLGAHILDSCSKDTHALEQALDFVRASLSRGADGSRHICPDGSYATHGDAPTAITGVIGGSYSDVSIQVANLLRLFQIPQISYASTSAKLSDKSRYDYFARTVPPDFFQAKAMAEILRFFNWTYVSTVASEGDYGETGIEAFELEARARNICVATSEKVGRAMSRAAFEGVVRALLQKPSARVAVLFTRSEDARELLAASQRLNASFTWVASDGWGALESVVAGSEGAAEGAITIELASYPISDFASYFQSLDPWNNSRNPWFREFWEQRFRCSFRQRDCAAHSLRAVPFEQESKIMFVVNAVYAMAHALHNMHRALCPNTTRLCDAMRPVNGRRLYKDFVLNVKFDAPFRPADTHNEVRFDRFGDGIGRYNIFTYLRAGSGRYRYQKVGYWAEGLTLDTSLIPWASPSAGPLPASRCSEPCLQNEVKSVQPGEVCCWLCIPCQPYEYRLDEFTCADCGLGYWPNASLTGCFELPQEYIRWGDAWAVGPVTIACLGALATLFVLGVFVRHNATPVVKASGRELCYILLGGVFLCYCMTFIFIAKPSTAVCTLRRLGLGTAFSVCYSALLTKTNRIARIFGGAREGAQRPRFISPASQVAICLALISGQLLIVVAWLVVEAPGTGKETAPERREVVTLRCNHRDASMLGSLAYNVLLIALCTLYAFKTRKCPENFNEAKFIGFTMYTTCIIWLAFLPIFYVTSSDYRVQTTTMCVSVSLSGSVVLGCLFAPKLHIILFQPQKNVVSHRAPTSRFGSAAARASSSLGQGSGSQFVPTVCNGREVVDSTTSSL

As for `Fc1ccc(N2CCN(Cc3ccn4c(CC5CC5)nnc4c3C(F)(F)F)CC2)c(F)c1` [Co. No. 1], the “Seizure score (dose) Corneal kindling / Mean Seizure Score” value in the data set on corneal kindled seizures (20 mg/kg s.c., Racine score 0-5) is reported as 3.7. Besides, the “# protected/# tested” value in the data set on corneal kindled seizures (Co. No. 1 20 mg/kg) is 5/16; with corneal kindled seizures (Co. No. 1 30 mg/kg), 3/12. The “% Protected” value with corneal kindled seizures (Co. No. 1 20 mg/kg) came to 31%; in the data set with corneal kindled seizures (Co. No. 1 30 mg/kg), 25%. For the same compound, in the data set with corneal kindled seizures (Co. No. 1 30 mg/kg), the “Mean Seizure Score” value was found to be 4.0. Moreover, the “Mean Plasma Level Co. No. 1, statistical outlier removed” value in data set [1] (Co. No. 1 2.5 mg/kg combined with LEV 10 mg/kg) is recorded as “(390) ng/ml”. For the same compound, the concentration at 0.5 h in data set [1] (plasma, subcutaneous, 2.5 mg/kg, Mean Plasma Levels (non-combination) Co. No. 1, Co. No. 1 2.5 mg/kg alone) was found to be 438 ng/mL; in data set [1] (plasma, subcutaneous, Mean Plasma Level Co. No. 1, Co. No. 1 2.5 mg/kg combined with LEV 10 mg/kg), 657 ng/mL.

In general, Emax refers to the size of the effect at its maximum, as opposed to the concentration needed. For `C[C@H](Oc1ccc(F)cc1F)c1ccn2c(CC3CC3)nnc2c1C(F)(F)F` [Co. No. 6-b, 3-(Cyclopropylmethyl)-7-[(1S)-1-(2,4-difluorophenoxy)ethyl]-8-(trifluoromethyl)[1,2,4]triazolo[4,3-a]pyridine], the Emax on human mGlu2 receptor turned out to be 256%.

Turning to `CCCCn1ccc(N2CCC(c3ccc(F)cc3F)CC2)c(Cl)c1=O` [Co. No. 25-a], the EC50 on human mGlu2 receptor (in presence of EC20 glutamate, read-out: GTPγS-hmGluR2 PAM pEC50 (converted)) is 85.1 nM. For the same compound, the Emax on human mGlu2 receptor came out at 261%. The “Co. No. 25-a mean plasma levels (ng/mL)” value is 6,113 ng/mL in data set [1] (10 mg/kg s.c., 0.25 h, 32 mA group) and 5,570 ng/mL in data set [1] (20 mg/kg s.c., 0.25 h, 32 mA group). Also, the concentration at 0.25 h in data set [1] (plasma, subcutaneous, 1 mg/kg, 1 mg/kg s.c., 0.25 h, 32 mA group, read-out: Co. No. 25-a mean plasma levels) is 466 ng/mL; in data set [1] (plasma, subcutaneous, 5 mg/kg, 5 mg/kg s.c., 0.25 h, 32 mA group, read-out: Co. No. 25-a mean plasma levels), 2560 ng/mL; in data set [1] (plasma, subcutaneous, 5 mg/kg, 5 mg/kg s.c., 44 mA group, read-out: Co. No. 25-a mean plasma levels) it was 1430 ng/mL; in data set [1] (plasma, subcutaneous, 10 mg/kg, 10 mg/kg s.c., 0.25 h, 32 mA group, read-out: Co. No. 25-a mean plasma levels), 11000 ng/mL; in data set [1] (plasma, subcutaneous, 10 mg/kg, 10 mg/kg s.c., 0.25 h, 32 mA group, read-out: Co. No. 25-a mean plasma levels, statistical outlier removed), 11000 ng/mL; in data set [1] (plasma, subcutaneous, 10 mg/kg, 10 mg/kg s.c., 44 mA group, read-out: Co. No. 25-a mean plasma levels), 4340 ng/mL. Moreover, the concentration at 0.25 h in data set [1] (plasma, subcutaneous, 10 mg/kg, 10 mg/kg s.c., 44 mA group, read-out: Co. No. 25-a mean plasma levels, statistical outlier removed) is 4340 ng/mL; in data set [1] (plasma, subcutaneous, 15 mg/kg, 15 mg/kg s.c., 0.25 h, 32 mA group, read-out: Co. No. 25-a mean plasma levels) it was 1200 ng/mL; in data set [1] (plasma, subcutaneous, 20 mg/kg, 20 mg/kg s.c., 0.25 h, 32 mA group, read-out: Co. No. 25-a mean plasma levels), 4100 ng/mL; in data set [1] (plasma, subcutaneous, 20 mg/kg, 20 mg/kg s.c., 44 mA group, read-out: Co. No. 25-a mean plasma levels) it was 3370 ng/mL; in data set [1] (plasma, subcutaneous, 30 mg/kg, 30 mg/kg s.c., 44 mA group, read-out: Co. No. 25-a mean plasma levels) it was 7220 ng/mL; in data set [1] (plasma, subcutaneous, 40 mg/kg, 40 mg/kg s.c., 44 mA group, read-out: Co. No. 25-a mean plasma levels), 6260 ng/mL. The concentration at 0.5 h in data set [1] (plasma, subcutaneous, 10 mg/kg, 10 mg/kg s.c., 0.5 h, 32 mA group, read-out: Co. No. 25-a mean plasma levels) came out at 3330 ng/mL; in data set [1] (plasma, subcutaneous, 20 mg/kg, 20 mg/kg s.c., 0.5 h, 32 mA group, read-out: Co. No. 25-a mean plasma levels), 2800 ng/mL. Further, the concentration at 1 h in data set [1] (plasma, subcutaneous, 10 mg/kg, 10 mg/kg s.c., 1 h, 32 mA group, read-out: Co. No. 25-a mean plasma levels) is 700 ng/mL; in data set [1] (plasma, subcutaneous, 20 mg/kg, 20 mg/kg s.c., 1 h, 32 mA group, read-out: Co. No. 25-a mean plasma levels), 1760 ng/mL. Also, the figures for the concentration at 2 h in data set [1] (setting [3]) and in data set [1] (setting [4]) were 256 ng/mL and 618 ng/mL, respectively. The concentration at 4 h was 40 ng/mL in data set [1] (setting [3]) and 28 ng/mL in data set [1] (setting [4]).

Take `CC[C@@H](C(N)=O)N1CCCC1=O` [LEV, (S)-2-(2-oxopyrrolidin-1-yl) butanamide, reference compound]: the “# protected/# tested” value in the data set on corneal kindled seizures (LEV 3 mg/kg) is 5/13. In addition, in the data set on corneal kindled seizures (LEV 3 mg/kg), the “% Protected” value is listed as 38%. In addition, the “Mean Seizure Score” value in the data set on corneal kindled seizures (LEV 3 mg/kg) is on record as 3.3. Also, the “Plasma (ng/ml) LEV, individual mice” value in data set [1] (LEV 10 mg/kg combined with Co. No. 1 2.5 mg/kg, 6 Hz 44 mA) was 9780 ng/ml (2×) and 13700 ng/ml and 10100 ng/ml and 9350 ng/ml and 8580 ng/ml and 10900 ng/ml; in data set [1] (setting [5]), 3540 ng/mL and 3850 ng/mL and 7150 ng/mL and 3890 ng/mL and 6450 ng/mL and 8200 ng/mL. In addition, the “Brain (ng/ml) LEV, individual mice” value in data set [1] (setting [5]) is 4760 ng/mL and 6380 ng/mL and 3960 ng/mL and 6290 ng/mL and 7990 ng/mL. The concentration at 1 h is 5770 ng/mL in data set [1] (brain, intraperitoneal, 10 mg/kg, LEV 10 mg/kg alone (Co. No. 2 study), read-out: Mean Brain Level (non-combination) LEV); 5880 ng/mL in data set [1] (brain, intraperitoneal, LEV 10 mg/kg combined with Co. No. 2 3 mg/kg, read-out: Mean Brain Level LEV); 8250 ng/mL in data set [1] (plasma, intraperitoneal, 10 mg/kg, LEV 10 mg/kg alone (Co. No. 1 study), read-out: Mean Plasma Levels (non-combination) LEV); 8750 ng/mL in data set [1] (plasma, intraperitoneal, 10 mg/kg, LEV 10 mg/kg alone (Co. No. 2 study), read-out: Mean Plasma Level (non-combination) LEV); 10300 ng/mL in data set [1] (plasma, intraperitoneal, LEV 10 mg/kg combined with Co. No. 1 2.5 mg/kg, 6 Hz 44 mA, read-out: Plasma (ng/ml) LEV, individual mice); 10300 ng/mL in data set [1] (plasma, intraperitoneal, LEV 10 mg/kg combined with Co. No. 1 2.5 mg/kg, read-out: Mean Plasma Level LEV). Further, the concentration at 1 h in data set [1] (plasma, intraperitoneal, LEV 10 mg/kg combined with Co. No. 2 3 mg/kg, read-out: Mean Plasma Level LEV) turned out to be 5510 ng/mL. For the same compound, the “activity in maximal electroshock (MES) seizure test” value in the data set with MES seizures is “no activity”. Moreover, in data set [2], the “activity in pentylenetetrazol seizure test” value is “no activity”.

The values are drawn from patent publication US20250288584A1, “COMBINATIONS COMPRISING POSITIVE ALLOSTERIC MODULATORS OR ORTHOSTERIC AGONISTS OF METABOTROPIC GLUTAMATERGIC RECEPTOR SUBTYPE 2 AND THEIR USE” (JANSSEN PHARMACEUTICA NV, priority 2014, published 2025).
